Reference: patent publication US7932255B2, “2-aminocarbonyl substituted piperazine or diaza-cyclic compounds as apoptosis protein inhibitors (lap) modulators” (Novartis AG, priority 2006, dated 2011)

target: T1, XIAP (Homo sapiens, UniProt P98170); assay: Disruption of the Smac peptide-(XIAP)BIR3 protein-protein interaction (Tables 2 and 3); assay type: binding; settings: not given
T1 construct: GST
Procedure: IC50 values for Series A compounds for XIAP. An assay capable of measuring disruption of the Smac peptide-(XIAP)BIR3 protein-protein interaction is established in the art as described in Example 2. In this assay IAP Inhibitor compounds compete with an immobilized Smac peptide for occupancy of the BIR3 binding pocket of XIAP. The rationale for this strategy results from the mutually exclusive nature of either Caspase 9 or Smac binding to the BIR3 pocket.
Assays are performed and IC50 values are calculated as follows: […]
IC50 values are calculated by logarithmic regression analysis of the percentage inhibition of each compound at 4 concentrations (usually 3- or 10-fold dilution series starting at 10 μM). In each experiment, the actual inhibition by reference compound is used for normalization of IC50 values to the basis of an average value of the reference inhibitor: Normalized IC50=measured IC50 average ref. IC50/measured ref. IC50
Activity determinations of compounds herein using the testing method described herein and as are well known in the art, are used with the following test compounds of formula (I). […] “Activity” as used herein is defined as having IC50 values for IAP target inhibition of less than 10 μM. Specifically, in the table:
IC50 values for Series B compounds are provided for XIAP. Assays are performed as described above using methods well known in the art.

T1 sequence (P98170 248-358 limits assumed, species assumed): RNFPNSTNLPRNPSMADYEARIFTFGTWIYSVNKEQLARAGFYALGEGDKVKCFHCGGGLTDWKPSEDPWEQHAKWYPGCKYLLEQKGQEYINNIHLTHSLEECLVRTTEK

| Structure (SMILES) | IC50 [µM] |
| --- | --- |
| CN[C@@H](C)C(=O)N[C@H](C(=O)N1CCN(C(=O)Oc2ccc(F)cc2)C[C@H]1C(=O)NC1CCCc2ccccc21)C(C)C (stereo partly drawn) [Compound 34, (S)-4-[(S)-3-Methyl-2-((S)-2-methylamino-propionylamino)-butyryl]-3-(1,2,3,4-tetrahydro-naphthalen-1-ylcarbamoyl)-piperazine-1-carboxylic acid 4-fluoro-phenyl ester] | < 10 |

same assay, conditions: Series A compounds, Table 2; read-out: XIAP IC50

| Structure (SMILES) | IC50 [µM] |
| --- | --- |
| CN[C@@H](C)C(=O)N[C@H](C(=O)N1CCN(S(=O)(=O)C2CCCCC2)C[C@H]1C(=O)NC1CCCc2ccccc21)C(C)C (stereo partly drawn) [Compound 11, (S)-4-Cyclohexanesulfonyl-1-[(S)-3-methyl-2-((S)-2-methylamino-propionylamino)-butyryl]-piperazine-2-carboxylic acid (1,2,3,4-tetrahydro-naphthalen-1-yl)-amide] | < 10 |
| CN[C@@H](C)C(=O)N[C@H](C(=O)N1CCN(Cc2ccccc2)C[C@H]1C(=O)NC1CCCc2ccccc21)C1CCCCC1 (stereo partly drawn) [Compound 55, (S)-4-Benzyl-1-[(S)-2-cyclohexyl-2-((S)-2-methylamino-propionylamino)-acetyl]-piperazine-2-carboxylic acid (1,2,3,4-tetrahydro-naphthalen-1-yl)-amide] | < 10 |
| CN[C@@H](C)C(=O)N[C@H](C(=O)N1CCN(C(=O)N2CCCC2)C[C@H]1C(=O)NC1CCCc2ccccc21)C(C)C (stereo partly drawn) [Compound 47, (S)-1-[(S)-3-Methyl-2-((S)-2-methylamino-propionylamino)-butyryl]-4-(pyrrolidine-1-carbonyl)-piperazine-2-carboxylic acid (1,2,3,4-tetrahydro-naphthalen-1-yl)-amide] | < 10 |
| CN[C@@H](C)C(=O)N[C@H](C(=O)N1CCN(CCC(C)C)C[C@H]1C(=O)NC1CCCc2ccccc21)C(C)C (stereo partly drawn) [Compound 24, (S)-4-(3-Methyl-butyl)-1-[(S)-3-methyl-2-((S)-2-methylamino-propionylamino)-butyryl]-piperazine-2-carboxylic acid (1,2,3,4-tetrahydro-naphthalen-1-yl)-amide] | < 10 |
| C[C@@H](C(=O)N[C@H](C(=O)N1CCN(Cc2ccccc2)C[C@H]1C(=O)N[C@@H]1CCCc2ccccc21)C1CCCCC1)N(C)C(=O)OC(C)(C)C [Compound 58, [(S)-1-((S)-2-{(S)-4-Benzyl-2-[(R)-(1,2,3,4-tetrahydro-naphthalen-1-yl)carbamoyl]-piperazin-1-yl}-1-cyclohexyl-2-oxo-ethylcarbamoyl)-ethyl]-methyl-carbamic acid tert-butyl ester] | > 10 |
| CN[C@@H](C)C(=O)N[C@H](C(=O)N1CCN(C(=O)Nc2ccccc2)C[C@H]1C(=O)NC1CCCc2ccccc21)C(C)C (stereo partly drawn) [Compound 41, (S)-4-[(S)-3-Methyl-2-((S)-2-methylamino-propionylamino)-butyryl]-piperazine-1,3-dicarboxylic acid 1-phenylamide 3-[(1,2,3,4-tetrahydro-naphthalen-1-yl)-amide]] | < 10 |
| CN[C@@H](C)C(=O)N[C@H](C(=O)N1CCN(S(=O)(=O)c2ccc(F)cc2)C[C@H]1C(=O)NC1CCCc2ccccc21)C(C)C (stereo partly drawn) [Compound 35, (S)-4-(4-Fluoro-benzenesulfonyl)-1-[(S)-3-methyl-2-((S)-2-methylamino-propionylamino)-butyryl]-piperazine-2-carboxylic acid (1,2,3,4-tetrahydro-naphthalen-1-yl)-amide] | < 10 |
| CNC(C)C(=O)NC(C(=O)N1CCN(S(=O)(=O)c2ccccc2)CC1C(=O)NC1CCCc2ccccc21)C(C)C (centres unmarked) [Compound 2, 4-Benzenesulfonyl-1-[3-methyl-2-(2-methylamino-propionylamino)-butyryl]-piperazine-2-carboxylic acid (1,2,3,4-tetrahydro-naphthalen-1-yl)-amide] | < 10 |

Second part, the compound after the results:

| IC50 [µM] | Structure (SMILES) |
| --- | --- |
| < 10 | CN[C@@H](C)C(=O)N[C@H](C(=O)N1CCN(C(=O)OCC(C)C)C[C@H]1C(=O)NC1CCCc2ccccc21)C(C)C (stereo partly drawn) [Compound 31, (S)-4-[(S)-3-Methyl-2-((S)-2-methylamino-propionylamino)-butyryl]-3-(1,2,3,4-tetrahydro-naphthalen-1-ylcarbamoyl)-piperazine-1-carboxylic acid isobutyl ester] |
| < 10 | CN[C@@H](C)C(=O)N[C@H](C(=O)N1CCN(C(=O)N(C)c2ccccc2)C[C@H]1C(=O)NC1CCCc2ccccc21)C(C)C (stereo partly drawn) [Compound 50, (S)-4-[(S)-3-Methyl-2-((S)-2-methylamino-propionylamino)-butyryl]-piperazine-1,3-dicarboxylic acid 1-(methyl-phenyl-amide) 3-[(1,2,3,4-tetrahydro-naphthalen-1-yl)-amide]] |
| < 10 | CN[C@@H](C)C(=O)N[C@H](C(=O)N1CCN(CCC(F)(F)F)C[C@H]1C(=O)NC1CCCc2ccccc21)C(C)C (stereo partly drawn) [Compound 20, (S)-1-[(S)-3-Methyl-2-((S)-2-methylamino-propionylamino)-butyryl]-4-(3,3,3-trifluoro-propyl)-piperazine-2-carboxylic acid (1,2,3,4-tetrahydro-naphthalen-1-yl)-amide] |
| < 10 | CN[C@@H](C)C(=O)N[C@H](C(=O)N1CCN(Cc2cccc3[nH]ccc23)C[C@H]1C(=O)NC1CCCc2ccccc21)C(C)C (stereo partly drawn) [Compound 15, (S)-4-(1H-Indol-4-ylmethyl)-1-[(S)-3-methyl-2-((S)-2-methylamino-propionylamino)-butyryl]-piperazine-2-carboxylic acid (1,2,3,4-tetrahydro-naphthalen-1-yl)-amide] |
| < 10 | CCN1CCN(C(=O)[C@@H](NC(=O)[C@H](C)NC)C(C)C)[C@H](C(=O)NC2CCCc3ccccc32)C1 (stereo partly drawn) [Compound 32, (S)-4-Ethyl-1-[(S)-3-methyl-2-((S)-2-methylamino-propionylamino)-butyryl]-piperazine-2-carboxylic acid (1,2,3,4-tetrahydro-naphthalen-1-yl)-amide] |

same assay, conditions: Series B compounds, Table 3; read-out: XIXP IC50

| Structure (SMILES) | IC50 [µM] |
| --- | --- |
| CN[C@@H](C)C(=O)N[C@H](C(=O)N1CCN(Cc2ccccc2)C[C@H]1C(=O)N1CCc2ccccc2C1)C(C)C [Compound 86, (S)-N-{(S)-1-[(S)-4-Benzyl-2-(3,4-dihydro-1H-isoquinoline-2-carbonyl)-piperazine-1-carbonyl]-2-methyl-propyl}-2-methylamino-propionamide] | < 10 |
| CN[C@@H](C)C(=O)N[C@H](C(=O)N1CCN(Cc2ccccc2)C[C@H]1C(=O)NCCc1ccccc1F)C(C)C [Compound 67, (S)-4-Benzyl-1-[(S)-3-methyl-2-((S)-2-methylamino-propionylamino)-butyryl]-piperazine-2-carboxylic acid [2-(2-fluoro-phenyl)-ethyl]-amide] | < 10 |
| CN[C@@H](C)C(=O)N[C@H](C(=O)N1CCN(Cc2ccccc2)C[C@H]1C(=O)NC1CCc2ccccc2C1)C(C)C (stereo partly drawn) [Compound 74, (S)-4-Benzyl-1-[(S)-3-methyl-2-((S)-2-methylamino-propionylamino)-butyryl]-piperazine-2-carboxylic acid (1,2,3,4-tetrahydro-naphthalen-2-yl)-amide] | < 10 |
| CN[C@@H](C)C(=O)N[C@H](C(=O)N1CCN(Cc2ccccc2)C[C@H]1C(=O)NCCc1cccnc1)C(C)C [Compound 66, (S)-4-Benzyl-1-[(S)-3-methyl-2-((S)-2-methylamino-propionylamino)-butyryl]-piperazine-2-carboxylic acid (2-pyridin-3-yl-ethyl)-amide] | > 10 |

More lines, now with the values ahead:

| IC50 [µM] | Structure (SMILES) |
| --- | --- |
| < 10 | CN[C@@H](C)C(=O)N[C@H](C(=O)N1CCN(Cc2ccccc2)C[C@H]1C(=O)NCc1ccccc1)C(C)C [Compound 65, (S)-4-Benzyl-1-[(S)-3-methyl-2-((S)-2-methylamino-propionylamino)-butyryl]-piperazine-2-carboxylic acid benzylamide] |
| < 10 | CN[C@@H](C)C(=O)N[C@H](C(=O)N1CCN(Cc2ccccc2)C[C@H]1C(=O)NCC1CCCCC1)C(C)C [Compound 79, (S)-4-Benzyl-1-[(S)-3-methyl-2-((S)-2-methylamino-propionylamino)-butyryl]-piperazine-2-carboxylic acid cyclohexylmethyl-amide] |
| < 10 | CCN(C(=O)[C@@H]1CN(Cc2ccccc2)CCN1C(=O)[C@@H](NC(=O)[C@H](C)NC)C(C)C)C1CCCc2ccccc21 (stereo partly drawn) [Compound 76, (S)-4-Benzyl-1-[(S)-3-methyl-2-((S)-2-methylamino-propionylamino)-butyrl]-piperazine-2-carboxylic acid ethyl-(1,2,3,4-tetrahydro-naphthalen-1-yl)-amide] |
| < 10 | CN[C@@H](C)C(=O)N[C@H](C(=O)N1CCN(Cc2ccccc2)C[C@H]1C(=O)NCc1ccco1)C(C)C [Compound 82, (S)-4-Benzyl-1-[(S)-3-methyl-2-((S)-2-methylamino-propionylamino)-butyryl]-piperazine-2-carboxylic acid (furan-2-ylmethyl)-amide] |
| < 10 | CN[C@@H](C)C(=O)N[C@H](C(=O)N1CCN(Cc2ccccc2)C[C@H]1C(=O)N[C@H](C)c1ccccc1)C(C)C [Compound 87, (S)-4-Benzyl-1-[(S)-3-methyl-2-((S)-2-methylamino-propionylamino)-butyryl]-piperazine-2-carboxylic acid ((R)-1-phenyl-ethyl)-amide] |
